Experimental data reported in PubChem BioAssay AID2060901 (Molecular Pharmacology Branch, DTP, NCI, 2025).

Test system: 422866-222-R5-J1-PDC complex spheroids viability
Experiment: Anticancer human tumor 422866-222-R5-J1-PDC patient-derived pancreatic adenocarcinoma cell line growth inhibition [RAS]
Conditions: for IC50: curve of first compound; for viability, T/C: stronger effect = lower value
How it was run: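 Multi-cell-type spheroids: tumor cells plus HUVEC endothelial cells and mesenchymal stem cells. RAS-pathway inhibitors were combined with targeted agents, each dosed in half-log steps down from clinical Cmax, or from 10 microM when Cmax was unknown.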

[1] = second compound 0.00316 µM, first compound 0.00316 µM
[2] = second compound 0.00316 µM, first compound 0.01 µM
[3] = second compound 0.00316 µM, first compound 0.0316 µM
[4] = second compound 0.00316 µM, first compound 0.1 µM
[5] = second compound 0.00316 µM, first compound 0.316 µM
[6] = second compound 0.00316 µM, first compound 1 µM
[7] = second compound 0.01 µM, first compound 0.00316 µM
[8] = second compound 0.01 µM, first compound 0.01 µM
[9] = second compound 0.01 µM, first compound 0.0316 µM
[10] = second compound 0.01 µM, first compound 0.1 µM
[11] = second compound 0.01 µM, first compound 0.316 µM
[12] = second compound 0.01 µM, first compound 1 µM
[13] = second compound 0.0316 µM, first compound 0.00316 µM
[14] = second compound 0.0316 µM, first compound 0.01 µM
[15] = second compound 0.0316 µM, first compound 0.0316 µM
[16] = second compound 0.0316 µM, first compound 0.1 µM
[17] = second compound 0.0316 µM, first compound 0.316 µM
[18] = second compound 0.0316 µM, first compound 1 µM
[19] = second compound 0.1 µM, first compound 0.00316 µM
[20] = second compound 0.1 µM, first compound 0.01 µM
[21] = second compound 0.1 µM, first compound 0.0316 µM
[22] = second compound 0.1 µM, first compound 0.1 µM
[23] = second compound 0.1 µM, first compound 0.316 µM
[24] = second compound 0.1 µM, first compound 1 µM
[25] = second compound 0.316 µM, first compound 0.00316 µM
[26] = second compound 0.316 µM, first compound 0.01 µM
[27] = second compound 0.316 µM, first compound 0.0316 µM
[28] = second compound 0.316 µM, first compound 0.1 µM
[29] = second compound 0.316 µM, first compound 0.316 µM
[30] = second compound 0.316 µM, first compound 1 µM
[31] = second compound 1 µM, first compound 0.00316 µM
[32] = second compound 1 µM, first compound 0.01 µM
[33] = second compound 1 µM, first compound 0.0316 µM
[34] = second compound 1 µM, first compound 0.1 µM
[35] = second compound 1 µM, first compound 0.316 µM
[36] = second compound 1 µM, first compound 1 µM
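Note: spheroids exposed to compounds for 7 days.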
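Throughout, for viability, T/C: 100% = DMSO vehicle control viability.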

Nc1ccn(C2OC(CO)C(O)C2(F)F)c(=O)n1 (stereo unspecified) + C=CC(=O)N1CCN(c2nc(OCC3CCCN3C)nc3c(F)c(-c4nc(N)cc(C)c4C(F)(F)F)c(Cl)cc23)C(C)C1 was tested, and the IC50 (second compound 0.00316 µM) was < 3.16 nM, the IC50 (second compound 0.01 µM) was < 3.16 nM and the IC50 (second compound 0.0316 µM) was < 3.16 nM. The IC50 (second compound 0.1 µM) was < 3.16 nM, the IC50 (second compound 0.316 µM) was < 3.16 nM and the IC50 (second compound 1 µM) was < 3.16 nM. It also gave a viability, T/C [1] of 25.5%, a viability, T/C [2] of 26.6% and a viability, T/C [3] of 21.8%. For the same compound, the viability, T/C [4] was 18.7%, the viability, T/C [5] was 14.8% and the viability, T/C [6] was 14.9%. The viability, T/C [7] was 26.6%, the viability, T/C [8] was 22.7% and the viability, T/C [9] was 21.7%. The viability, T/C [10] was 15.7%, the viability, T/C [11] was 15.3% and the viability, T/C [12] was 17%. For the same compound, the viability, T/C [13] was 27.5%, the viability, T/C [14] was 19.9% and the viability, T/C [15] was 19.3%. The viability, T/C [16] was 16.9%, the viability, T/C [17] was 15.9% and the viability, T/C [18] was 14.1%. It also gave a viability, T/C [19] of 21.9%, a viability, T/C [20] of 21.6% and a viability, T/C [21] of 18.6%. For the same compound, the viability, T/C [22] was 16.4%, the viability, T/C [23] was 14.8% and the viability, T/C [24] was 14.6%. It also gave a viability, T/C [25] of 24.8%, a viability, T/C [26] of 20.4% and a viability, T/C [27] of 20%. It also gave a viability, T/C [28] of 18.1%, a viability, T/C [29] of 16.7% and a viability, T/C [30] of 17.4%. It also gave a viability, T/C [31] of 22.9%, a viability, T/C [32] of 19.7% and a viability, T/C [33] of 19%. It also gave a viability, T/C [34] of 14.2%, a viability, T/C [35] of 18% and a viability, T/C [36] of 17.4%.

With CC1(O)CCCC1n1c(=O)c(C(F)F)cc2cnc(NC3CCN(S(C)(=O)=O)CC3)nc21 (stereo unspecified) + C=CC(=O)N1CCN(c2nc(OCC3CCCN3C)nc3c(F)c(-c4nc(N)cc(C)c4C(F)(F)F)c(Cl)cc23)C(C)C1 the IC50 (second compound 0.00316 µM) was < 31.6 nM, the IC50 (second compound 0.01 µM) was < 31.6 nM and the IC50 (second compound 0.0316 µM) was < 31.6 nM. For the same compound, the IC50 (second compound 0.1 µM) was < 31.6 nM, the IC50 (second compound 0.316 µM) was < 31.6 nM and the IC50 (second compound 1 µM) was < 31.6 nM. It also gave a viability, T/C [3] of 32.6%, a viability, T/C [4] of 25.6% and a viability, T/C [5] of 26%. For the same compound, the viability, T/C [6] was 31.4%, the viability, T/C (second compound 0.00316 µM, first compound 3.16 µM) was 33.3% and the viability, T/C (second compound 0.00316 µM, first compound 10 µM) was 33.1%. It also gave a viability, T/C [9] of 27.6%, a viability, T/C [10] of 25.8% and a viability, T/C [11] of 28.1%. It also gave a viability, T/C [12] of 25.4%, a viability, T/C (second compound 0.01 µM, first compound 3.16 µM) of 30.3% and a viability, T/C (second compound 0.01 µM, first compound 10 µM) of 33.9%. The viability, T/C [15] was 33.6%, the viability, T/C [16] was 20.7% and the viability, T/C [17] was 22.5%. The viability, T/C [18] was 21.6%, the viability, T/C (second compound 0.0316 µM, first compound 3.16 µM) was 26.5% and the viability, T/C (second compound 0.0316 µM, first compound 10 µM) was 24.9%. The viability, T/C [21] was 18.4%, the viability, T/C [22] was 19.9% and the viability, T/C [23] was 22.1%. The viability, T/C [24] was 23%, the viability, T/C (second compound 0.1 µM, first compound 3.16 µM) was 28% and the viability, T/C (second compound 0.1 µM, first compound 10 µM) was 29.3%. The viability, T/C [27] was 21.9%, the viability, T/C [28] was 20.4% and the viability, T/C [29] was 23.6%. For the same compound, the viability, T/C [30] was 23.8%, the viability, T/C (second compound 0.316 µM, first compound 3.16 µM) was 29.7% and the viability, T/C (second compound 0.316 µM, first compound 10 µM) was 35.3%. It also gave a viability, T/C [33] of 20.6%, a viability, T/C [34] of 20.3% and a viability, T/C [35] of 23.9%. The viability, T/C [36] was 23.4%, the viability, T/C (second compound 1 µM, first compound 3.16 µM) was 30.6% and the viability, T/C (second compound 1 µM, first compound 10 µM) was 40.1%.

In the case of O=C(c1ccc(F)c(F)c1Nc1ccc(I)cc1F)N1CC(O)([C@@H]2CCCCN2)C1 + C=CC(=O)N1CCN(c2nc(OCC3CCCN3C)nc3c(F)c(-c4nc(N)cc(C)c4C(F)(F)F)c(Cl)cc23)C(C)C1, the IC50 (second compound 0.00316 µM) is reported as < 3.16 nM, the IC50 (second compound 0.01 µM) is reported as < 3.16 nM and the IC50 (second compound 0.0316 µM) is reported as < 3.16 nM. For the same compound, the IC50 (second compound 0.1 µM) was < 3.16 nM, the IC50 (second compound 0.316 µM) was < 3.16 nM and the IC50 (second compound 1 µM) was < 3.16 nM. The viability, T/C [1] was 27.3%, the viability, T/C [2] was 29% and the viability, T/C [3] was 20.7%. The viability, T/C [4] was 18.1%, the viability, T/C [5] was 16.6% and the viability, T/C [6] was 17.1%. The viability, T/C [7] was 39.6%, the viability, T/C [8] was 22.1% and the viability, T/C [9] was 21.8%. It also gave a viability, T/C [10] of 15.2%, a viability, T/C [11] of 17% and a viability, T/C [12] of 12.9%. For the same compound, the viability, T/C [13] was 28.7%, the viability, T/C [14] was 24.2% and the viability, T/C [15] was 18.3%. The viability, T/C [16] was 14.5%, the viability, T/C [17] was 17.8% and the viability, T/C [18] was 14.6%. It also gave a viability, T/C [19] of 22.3%, a viability, T/C [20] of 18.9% and a viability, T/C [21] of 17.4%. For the same compound, the viability, T/C [22] was 13.8%, the viability, T/C [23] was 14.9% and the viability, T/C [24] was 14.3%. The viability, T/C [25] was 18%, the viability, T/C [26] was 18.2% and the viability, T/C [27] was 20.1%. For the same compound, the viability, T/C [28] was 12.6%, the viability, T/C [29] was 16.4% and the viability, T/C [30] was 14.1%. The viability, T/C [31] was 19.7%, the viability, T/C [32] was 17.7% and the viability, T/C [33] was 18.5%. For the same compound, the viability, T/C [34] was 15%, the viability, T/C [35] was 14.8% and the viability, T/C [36] was 16.1%.
